This note sets out measurements from US8119640B2, “Hedgehog pathway antagonists methods of use” (The Board of Trustees of the Leland Stanford Junior …, priority 2008, dated 2012).

Common to all, as to type: cell-based
Series [1] has as its system Hh pathway. Briefly: Shh-LIGHT2 assay for Hh pathway activation (Gli-dependent firefly luciferase). As to conditions: Shh Light2. The procedure:
Shh-LIGHT2 assay for Hh pathway activation and library screening conditions. h-N-conditioned medium was prepared as previously described. […] For 96-well plate assays, Shh-LIGHT2 cells were seeded into each plate (10,000 cells/well) and cultured to confluency. The Shh-LIGHT2 cells were then grown in DMEM containing 0.5% CS, 100 U/mL penicillin, 0.1 mg/mL streptomycin, either 5% Shh-N-conditioned medium or 500 nM SAG, and various concentrations of the HPIs. After the cells were cultured for another 30 h, the resulting firefly and Renilla luciferase activities were measured using a Dual Luciferase Reporter kit (Promega) and a Veritas microplate luminometer (Turner Biosystems).
When the cells reached >90% confluency, they were removed by trypsinization and diluted to a final volume of 50 mL medium. This cell suspension was then plated into clear-bottom, white-walled 384-well plates using a Titertek Multidrop dispenser (50 μL/well) and the cells were cultured until they reached confluency (3-4 days). […] The plates were then placed into an automated Staccato system (Caliper Life Sciences), which includes an automated CO2 incubator. An automated protocol was then run, in 3 which a Multidrop dispenser added 10 μL of a SAG solution in 0.5% CS medium (final SAG concentration of 500 nM) to columns 1-22 and 100 nL of each compound solution was added to the plates using a V&P Scientific pin tool, resulting in a final compound screening concentration of 10 μM. The SAG-free wells were used as negative controls. After 28-32 h, the assay medium was manually removed and the plates were frozen. To assay the firefly luciferase activities, the plates were thawed and placed into a Twister II stacker in the Staccato system. Bright-Glo luciferase substrate (Promega) was added by the Multidrop dispenser and the plates were analyzed on an Analyst GT microplate reader (2 min in the dark, 0.2 sec integration/well; Molecular Devices). Hits were defined as compounds that reduce the firefly luciferase signal by at least 50% compared to inhibitor-free controls. Primary hits were then re-tested in duplicate in an eight-point, 1:1 serially diluted doseresponse curve with a starting concentration of 20 μM. In these experiments, the median inhibitory concentration (IC50) for both firefly and Renilla luciferase were determined using a Dual-Glo kit (Promega).

Series [2] relates to Hh pathway. Briefly: Su(fu)-/- fibroblasts assay for Hh pathway activation. As to conditions: Gli-dependent firefly luciferase; 15 μM HPI-1, 20 μM HPI-2, 30 μM HPI-3, 30 μM HPI-4; 1440 min. The procedure: Su(fu)^−/− fibroblasts assay for Hh pathway activation. […] After 24 h, the cells were transfected with Fugene HD (Roche), 8xGliBS-FL (95 ng/well), phRLSV40 (5 ng/well; Promega), and pEGFP-C1 (300 ng/well as a carrier; Clontech) according to the manufacturer's protocols. […] The resulting firefly and Renilla luciferase activities were measured using a dual luciferase kit and Veritas microplate luminometer.

In a further series the test system is NIH-3T3 cells. Briefly: Microtubule cytoskeleton staining of HPI-treated NIH-3T3 cells. As to conditions: tubulin antibody staining. The procedure: Immunostaining of FLAG-Gli lines and NIH-3T3 cells. The FLAG-Gli1-expressing or FLAG-Gli2-expressing clonal cell lines were seeded into 24-well plates (80,000 cells/well) containing poly-D-lysine-coated 12-mm glass coverslips. […] The cells were subsequently fixed in 4% paraformaldehyde for 10 min at room temperature followed by treatment with methanol at −20° C. for 2 to 5 min. The cells were washed with PBS, permeabilized with 0.2% Triton X-100 for 2 to 5 min, and then blocked with PBS containing 2% BSA for 3 h at room temperature. The coverslips were then treated with mouse anti-FLAG M2 antibody (Sigma; 1:1,000 dilution in blocking buffer) and rabbit anti-Arl13b (10) (1:1,000 dilution in blocking buffer) for 3 h at room temperature and washed 3×5 min with PBS. The coverslips were incubated next with Alexa Fluor 594-conjugated goat anti-mouse IgG and Alexa Fluor 488-conjugated donkey anti-rabbit IgG antibodies (Invitrogen; 1:1,000 dilutions in blocking buffer) for 2 h at room temperature. After washes with PBS and a 5-min incubation with 4,6-diamidino-2-phenylindole (DAPI), the samples were mounted using Prolong Gold (Invitrogen) and imaged with an upright Leica DM4500B compound microscope. In order to quantify ciliary Gli2 localization, a circular region with diameter equal to the average width of cilia as determined by the anti-Arl13b antibody staining was manually placed at the distal end of each cilium. Regions were transferred from the anti-Arl13b antibody image to the anti-FLAG antibody image, and FLAG staining intensities within those areas were assessed. Between 40 and 80 cilia were analyzed for each condition. To normalize ciliary FLAG-Gli2 levels with respect to compound-dependent changes in total FLAG-Gli2 levels, the absolute average intensities for each condition were divided by the fold change in FLAG-Gli2 levels, as determined by the quantitative immunoblotting described above. Quantification of ciliary FLAG-Gli1 levels was performed in an analogous manner. Since HPI-4 perturbs primary cilia formation, only Arl13b-positive structures that could be clearly identified as cilia were used for Gli protein quanitification in HPI-4-treated cells. To assess cytoplasmic microtubule structures in cells treated with the HPIs, NIH-3T3 cells were cultured on poly-D-lysine-coated 12-mm glass coverslip, treated with the HPIs, and fixed with 4% paraformalehyde as described above. In place of the methanol treatment, the cells were permeabilitized with PBS containing 0.1% Triton X-100 for 1 min. Washing, blocking, and antibody incubation steps were then conducted as before, using mouse anti-<-tubulin (DM1-A, Sigma, 1:2,000 in blocking buffer). Secondary antibody treatments, DAPI staining, mounting, and imaging were then conducted as described above.

The subject of another series is C3H10T(1/2) cells. Briefly: C3H10T(1/2) assay for Hh pathway activation (alkaline phosphatase). As to conditions: Mus musculus, C3H 10T1/2; Shh-induced differentiation, alkaline phosphatase; read-out: IC50 (uM) Shh/C3H10T[1/2] cells. The procedure: C3H10T(1/2) assay for Hh pathway activation. C3H10T(1/2) cells (ATCC) were plated into 96-well plates using DMEM containing 10% FBS, 100 U/mL penicillin, 0.1 mg/mL streptomycin, 5% Shh-N-conditioned medium, and various concentrations of the Hh pathway inhibitors. After approximately 40 h, the cells were washed with PBS and lysed in 50 μL of buffer containing 50 mM Tris-HCl, pH 9.5, 150 mM NaCl, 5 mM MgCl2, and 1% Triton X-100. Alkaline phosphatase activities in the cell lysates were quantified by adding 10 μL of the lysate to 50 μL of CDP-Star chemiluminescence reagent (Perkin Elmer) and measuring the resulting chemiluminescence on a Veritas microplate luminometer.

Where [3] appears, read: stimulated with 500 nM SAG, read-out: IC50 (uM) SAG/Shh-LIGHT2 cells.
Where [4] appears, read: stimulated with Shh-N-conditioned medium, read-out: IC50 (uM) Shh/Shh-LIGHT2 cells.

Like-named read-outs stand apart in the source and are kept apart here.

For the compound `CCCCNC(=N)C(C)c1ccc(CC(C)C)cc1` (stereo not drawn) [Compound 2], the IC50 in the series with Hh pathway [1] (setting [3]) is 2.2 µM; in the series with Hh pathway [1] (setting [4]) it was 1.6 µM; with C3H10T(1/2) cells, 0.8 µM. Besides, the “% Inhibition Su(fu)-/- MEFs” value in the series on Hh pathway [2] turned out to be 6.26%. Also, the Microtubule disruption entry in the series with NIH-3T3 cells is recorded as “No”.
Regarding `O=S(=O)(Nc1cc(Cl)c(Cl)cc1Cl)c1ccc(F)cc1` [Compound 10], the IC50 in the series on Hh pathway [1] (setting [3]) turned out to be 2.2 µM; in the series on Hh pathway [1] (setting [4]) it was 2.2 µM; with C3H10T(1/2) cells, 4 µM. Moreover, the “% Inhibition Su(fu)-/- MEFs” value in the series with Hh pathway [2] came out at 81.8%. In the series on NIH-3T3 cells, the Microtubule disruption result is reported as “No”.
Consider `CCOC(=O)c1cn(-c2ccccc2)nc1-c1ccc(OC)c(OC)c1` [Compound 9], for which the IC50 was determined as 5 µM with Hh pathway [1] (setting [3]), 5 µM in the series with Hh pathway [1] (setting [4]) and 0.8 µM in the series with C3H10T(1/2) cells. In the series on Hh pathway [2], the “% Inhibition Su(fu)-/- MEFs” value was −26.9%. Moreover, in the series with NIH-3T3 cells, the Microtubule disruption entry is listed as “No”.
